In ChEMBL document CHEMBL4765398, “Benzothiophene-2-carboxamide derivatives as SENPs inhibitors with selectivity within SENPs family” (Eur J Med Chem, 2020):

What was measured:
[1] = target: T1, Sentrin-specific protease 5 (Homo sapiens, UniProt Q96HI0); assay: Inhibition of recombinant human SNEP5 (567 to 755 residues) expressed in Escherichia coli (DE3) cells using RanGAP-SUMO2 substrate preincubated for 10 mins followed by substrate addition and measured after 25 min by Coomassie blue staining based SDS-PAGE analysis
T1 sequence (Q96HI0 whole entry): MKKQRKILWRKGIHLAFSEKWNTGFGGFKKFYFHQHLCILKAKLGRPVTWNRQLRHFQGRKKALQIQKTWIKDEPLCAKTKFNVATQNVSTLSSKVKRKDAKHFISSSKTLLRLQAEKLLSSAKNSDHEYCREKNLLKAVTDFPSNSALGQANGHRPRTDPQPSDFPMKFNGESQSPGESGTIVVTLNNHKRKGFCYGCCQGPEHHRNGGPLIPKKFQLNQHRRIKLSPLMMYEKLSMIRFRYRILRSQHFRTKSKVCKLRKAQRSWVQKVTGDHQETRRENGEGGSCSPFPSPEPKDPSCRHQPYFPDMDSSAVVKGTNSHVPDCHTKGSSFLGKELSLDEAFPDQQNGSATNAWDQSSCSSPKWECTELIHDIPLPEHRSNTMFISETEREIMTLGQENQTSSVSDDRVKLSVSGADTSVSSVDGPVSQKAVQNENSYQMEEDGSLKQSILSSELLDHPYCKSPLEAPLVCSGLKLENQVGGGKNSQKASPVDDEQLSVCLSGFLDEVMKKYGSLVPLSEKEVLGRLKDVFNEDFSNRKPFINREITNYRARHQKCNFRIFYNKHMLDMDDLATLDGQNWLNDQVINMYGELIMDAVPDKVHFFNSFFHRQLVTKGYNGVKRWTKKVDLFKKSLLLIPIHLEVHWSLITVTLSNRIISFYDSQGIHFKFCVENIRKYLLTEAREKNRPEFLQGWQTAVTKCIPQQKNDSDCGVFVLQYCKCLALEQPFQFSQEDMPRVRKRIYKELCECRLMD

[2] = target: T2, Sentrin-specific protease 1 (Homo sapiens, UniProt Q9P0U3); assay: Inhibition of recombinant human SNEP1 (419 to 644 residues) expressed in Escherichia coli (DE3) cells using RanGAP-SUMO2 substrate preincubated for 10 mins followed by substrate addition and measured after 25 min by Coomassie blue staining based SDS-PAGE analysis
T2 sequence (Q9P0U3 whole entry): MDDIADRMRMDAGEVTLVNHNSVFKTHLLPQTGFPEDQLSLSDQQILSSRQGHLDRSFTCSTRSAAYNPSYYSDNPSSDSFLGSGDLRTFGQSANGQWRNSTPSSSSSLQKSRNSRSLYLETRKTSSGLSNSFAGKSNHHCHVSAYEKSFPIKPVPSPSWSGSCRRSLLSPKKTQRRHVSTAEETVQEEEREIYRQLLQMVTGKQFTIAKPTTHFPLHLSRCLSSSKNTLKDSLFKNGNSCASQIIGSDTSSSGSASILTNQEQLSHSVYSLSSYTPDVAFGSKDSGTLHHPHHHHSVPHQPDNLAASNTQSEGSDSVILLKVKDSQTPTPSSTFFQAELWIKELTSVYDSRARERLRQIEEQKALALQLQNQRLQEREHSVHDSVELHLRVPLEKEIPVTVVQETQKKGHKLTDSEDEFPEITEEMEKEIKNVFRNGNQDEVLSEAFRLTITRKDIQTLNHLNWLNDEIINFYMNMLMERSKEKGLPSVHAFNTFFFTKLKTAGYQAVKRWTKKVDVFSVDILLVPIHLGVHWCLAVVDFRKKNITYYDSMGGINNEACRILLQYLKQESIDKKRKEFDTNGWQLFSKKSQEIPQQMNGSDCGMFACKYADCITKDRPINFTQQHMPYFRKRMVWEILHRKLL

[3] = target: T3, Sentrin-specific protease 2 (Homo sapiens, UniProt Q9HC62); assay: Inhibition of recombinant human SNEP2 (365 to 589 residues) expressed in Escherichia coli (DE3) cells using RanGAP-SUMO2 substrate preincubated for 10 mins followed by substrate addition and measured after 25 min by Coomassie blue staining based SDS-PAGE analysis
T3 sequence (Q9HC62 whole entry): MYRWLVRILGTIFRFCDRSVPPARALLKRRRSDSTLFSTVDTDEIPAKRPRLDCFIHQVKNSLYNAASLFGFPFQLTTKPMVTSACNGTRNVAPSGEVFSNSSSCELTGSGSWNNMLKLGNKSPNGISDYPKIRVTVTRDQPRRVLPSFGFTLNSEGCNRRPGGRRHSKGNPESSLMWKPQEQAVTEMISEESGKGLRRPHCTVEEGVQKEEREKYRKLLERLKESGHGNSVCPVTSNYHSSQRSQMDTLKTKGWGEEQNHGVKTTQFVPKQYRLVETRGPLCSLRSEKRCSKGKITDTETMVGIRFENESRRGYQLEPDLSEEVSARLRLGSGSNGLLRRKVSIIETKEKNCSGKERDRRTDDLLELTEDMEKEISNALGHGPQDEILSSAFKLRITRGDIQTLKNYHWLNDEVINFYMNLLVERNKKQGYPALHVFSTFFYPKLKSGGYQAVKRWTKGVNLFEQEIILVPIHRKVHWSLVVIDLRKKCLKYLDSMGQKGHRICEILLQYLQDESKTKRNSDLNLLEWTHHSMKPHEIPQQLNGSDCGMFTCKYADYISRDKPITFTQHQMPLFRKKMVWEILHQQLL

[4] = Inhibition of recombinant human SNEP1 K455A mutant (419 to 644 residues) expressed in Escherichia coli (DE3) cells using RanGAP-SUMO2 substrate preincubated for 10 mins followed by substrate addition and measured after 25 min by Coomassie blue staining based SDS-PAGE analysis
[5] = Inhibition of recombinant human SNEP1 W465A mutant (419 to 644 residues) expressed in Escherichia coli (DE3) cells using RanGAP-SUMO2 substrate preincubated for 10 mins followed by substrate addition and measured after 25 min by Coomassie blue staining based SDS-PAGE analysis
[6] = Inhibition of recombinant human SNEP1 Q597A mutant (419 to 644 residues) expressed in Escherichia coli (DE3) cells using RanGAP-SUMO2 substrate preincubated for 10 mins followed by substrate addition and measured after 25 min by Coomassie blue staining based SDS-PAGE analysis
[7] = Inhibition of recombinant human SNEP1 H529A mutant (419 to 644 residues) expressed in Escherichia coli (DE3) cells using RanGAP-SUMO2 substrate preincubated for 10 mins followed by substrate addition and measured after 25 min by Coomassie blue staining based SDS-PAGE analysis
[8] = Inhibition of recombinant human SNEP1 F496A mutant (419 to 644 residues) expressed in Escherichia coli (DE3) cells using RanGAP-SUMO2 substrate preincubated for 10 mins followed by substrate addition and measured after 25 min by Coomassie blue staining based SDS-PAGE analysis

IC50 [1] [µM]	IC50 [2] [µM]	IC50 [3] [µM]	IC50 [4] [µM]	IC50 [5] [µM]	IC50 [6] [µM]	IC50 [7] [µM]	IC50 [8] [µM]	SMILES
> 100	–	–	–	–	–	–	–	Nc1ccc(C(=O)Nc2cccc(CNC(=O)c3sc4ccccc4c3OCc3ccccc3)c2)cc1
28.9	25.4	52.9	–	–	–	–	–	CC(=O)Nc1cccc(CNC(=O)c2sc3ccccc3c2OCc2ccccc2)c1
–	–	–	3.42	40.7	22.4	21.2	5.92	CCOC(=O)CNc1ccc2sc(C(=O)NCc3cccc(NC(=O)c4cccs4)c3)c(OCc3ccccc3)c2c1
